Source: patent publication US20240217960A1, “TRIAZINE DERIVATIVE AS COVALENT INHIBITORS OF PI3K” (UNIVERSITÄT BASEL, priority 2021, published 2024)
≈ marks a conversion by molar mass, not a printed value.

How the values were obtained:
[1] = Experimental LogD; assay type: physicochemical; conditions: pH 7.4; 3 independent measurements
[2] = Intrinsic reactivity of the inhibitors (kchem) with βME measured with HPLC; assay type: physicochemical; conditions: 1 mM inhibitor + 600 mM βME, n = 3
[3] = PBS solubility; assay type: physicochemical; conditions: aqueous buffer, pH 7.4, 3 independent measurements
[4] = system: pSer473 of PKB/Akt in SKOV3 cells; assay: In Cell Western cellular PI3K signaling and IC50 determination; assay type: cell-based; conditions: Homo sapiens, SK-OV-3; SKOV3 cells; 2 or 3 independent measurements; read-out: IC50 pPKB (S473) SKOV3
Description: Protein phosphorylation was detected as follows: pSer473 of PKB/Akt with rabbit polyclonal antibody from Cell Signaling Technology (CST) (#4058) by In-Cell Western assays, where 1.2×10^4 SKOV3 cells/well in 96-well plates were plated (Cell Carrier, PerkinElmer) for 24 hours (37° C., 5% CO2), as described in Ref. ^25.

[5] = molecular target: p110α (PI3Kα) (Homo sapiens, UniProt P42336); assay: Determination of kinetic constants (kinact, Ki) for p110α by LanthaScreen Technology; assay type: binding; conditions: for Ki: dissociation constant of the first reversible binding, read-out: Ki PI3Kα; for Ki / kinact: global fitting with KinTek; for kinact: maximum potential rate of covalent bond formation, read-out: kinact PI3Kα; for kinact/KI: read-out: kinact/Ki PI3Kα
Chain of p110α (PI3Kα) (P42336 whole entry): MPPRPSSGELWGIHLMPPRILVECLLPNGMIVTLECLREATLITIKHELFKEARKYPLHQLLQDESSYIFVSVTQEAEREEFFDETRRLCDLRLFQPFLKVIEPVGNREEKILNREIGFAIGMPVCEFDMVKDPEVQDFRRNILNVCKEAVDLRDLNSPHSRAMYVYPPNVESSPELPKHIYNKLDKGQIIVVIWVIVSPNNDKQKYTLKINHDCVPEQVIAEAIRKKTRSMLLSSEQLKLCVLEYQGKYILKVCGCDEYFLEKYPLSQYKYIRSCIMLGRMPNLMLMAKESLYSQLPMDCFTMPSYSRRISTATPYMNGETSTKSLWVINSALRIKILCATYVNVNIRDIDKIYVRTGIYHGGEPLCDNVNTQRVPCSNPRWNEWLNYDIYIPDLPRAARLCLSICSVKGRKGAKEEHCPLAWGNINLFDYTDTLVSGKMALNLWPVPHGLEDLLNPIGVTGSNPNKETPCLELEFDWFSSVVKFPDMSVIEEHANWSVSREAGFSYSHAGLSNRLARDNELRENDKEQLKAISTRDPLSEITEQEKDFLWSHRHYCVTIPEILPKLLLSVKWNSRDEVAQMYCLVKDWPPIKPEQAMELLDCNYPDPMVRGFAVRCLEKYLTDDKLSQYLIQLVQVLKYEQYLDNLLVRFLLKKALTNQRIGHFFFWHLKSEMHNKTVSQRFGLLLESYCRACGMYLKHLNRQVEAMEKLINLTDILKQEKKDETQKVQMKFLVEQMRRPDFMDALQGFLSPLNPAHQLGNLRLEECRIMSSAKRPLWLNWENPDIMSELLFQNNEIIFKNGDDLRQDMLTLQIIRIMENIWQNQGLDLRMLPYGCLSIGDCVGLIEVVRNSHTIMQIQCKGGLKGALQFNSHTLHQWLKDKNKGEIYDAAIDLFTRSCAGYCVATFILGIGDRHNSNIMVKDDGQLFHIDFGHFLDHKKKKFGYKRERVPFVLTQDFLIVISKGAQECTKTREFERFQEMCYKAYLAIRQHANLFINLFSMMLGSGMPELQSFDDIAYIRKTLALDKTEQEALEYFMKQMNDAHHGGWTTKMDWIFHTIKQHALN
Chain of p110α (PI3Kα) (P27986 whole entry partner): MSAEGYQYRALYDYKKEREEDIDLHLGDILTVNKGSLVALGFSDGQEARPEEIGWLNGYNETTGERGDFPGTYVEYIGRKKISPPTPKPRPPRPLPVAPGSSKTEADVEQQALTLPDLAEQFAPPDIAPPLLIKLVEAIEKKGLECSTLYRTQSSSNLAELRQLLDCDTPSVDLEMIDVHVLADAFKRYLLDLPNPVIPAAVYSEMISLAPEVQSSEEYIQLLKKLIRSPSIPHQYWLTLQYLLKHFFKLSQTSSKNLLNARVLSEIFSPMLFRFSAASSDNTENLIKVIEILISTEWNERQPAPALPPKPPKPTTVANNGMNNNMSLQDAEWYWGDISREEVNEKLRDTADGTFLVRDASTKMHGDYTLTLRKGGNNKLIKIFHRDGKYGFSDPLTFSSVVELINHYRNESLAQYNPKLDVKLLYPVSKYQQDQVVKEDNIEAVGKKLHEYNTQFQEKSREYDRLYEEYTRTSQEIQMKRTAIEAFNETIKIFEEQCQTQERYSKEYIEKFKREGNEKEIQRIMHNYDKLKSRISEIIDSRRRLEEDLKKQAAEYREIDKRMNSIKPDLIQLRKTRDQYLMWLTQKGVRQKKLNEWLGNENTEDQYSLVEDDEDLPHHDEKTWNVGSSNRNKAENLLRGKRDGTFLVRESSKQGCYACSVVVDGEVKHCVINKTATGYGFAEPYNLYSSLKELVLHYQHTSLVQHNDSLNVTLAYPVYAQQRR
Description: Maximum potential rate of covalent bond formation (kinact) and dissociation constant of the first reversible binding (Ki) of compounds for p110α were determined by LanthaScreen Technology (Life Technologies). The calculation of kinetic parameters was carried out through global fitting for numerical integration by using KinTek Global Kinetic Explorer modelling software^26-31.

For `CC(C)=CC(=O)CCC(=O)N1CCN(Cc2cc3nc(-c4cccc5[nH]ncc45)nc(N4CCOCC4)c3s2)CC1` [CNX-1351, 1-[4-[[2-(1H-indazol-4-yl)-4-(4-morpholinyl)thieno[3,2-d]pyrimidin-6-yl]methyl]-1-piperazinyl]-6-methyl-5-heptene-1,4-dione, reference compound], which logD [1] is on record?
The logD was 3.96.

And the “kchem (intrinsic reactivity of the inhibitors)” value [2]?
The value was 0.000222 M⁻¹ s⁻¹.

What about the solubility [3] of the same molecule?
Its solubility is 10 µM (≈ 5.74 µg/mL).

Which logD [1] does the source give for `C=CC(=O)N1CCC(CCCC(=O)N2CCN(c3nc(-c4cnc(N)nc4C(F)F)nc(N4CCOCC4)n3)CC2)CC1` [Compound 41, 4-(1-acryloylpiperidin-4-yl)-1-(4-(4-(2-amino-4-(difluoromethyl)pyrimidin-5-yl)-6-morpholino-1,3,5-triazin-2-yl)piperazin-1-yl)butan-1-one] here?
Its logD is 2.67.

And the “kchem (intrinsic reactivity of the inhibitors)” value [2]?
Its value is 0.000225 M⁻¹ s⁻¹.

What about the solubility [3] of the same molecule?
The solubility was 243 µM (≈ 146 µg/mL).

For `C=CC(=O)N1CCC(C(=O)NCCC(=O)N2CCN(c3nc(-c4cnc(N)nc4C(F)F)nc(N4CCOCC4)n3)CC2)CC1` [Compound 48, 1-acryloyl-N-(3-(4-(4-(2-amino-4-(difluoromethyl)pyrimidin-5-yl)-6-morpholino-1,3,5-triazin-2-yl)piperazin-1-yl)-3-oxopropyl)piperidine-4-carboxamide], which IC50 [4] is on record?
The IC50 was 0.664 µM.

What about the “kchem (intrinsic reactivity of the inhibitors)” value [2] of the same molecule?
Its value is 0.000452 M⁻¹ s⁻¹.

And the Ki [5]?
Its Ki is 0.0141 µM.

And the kinact [5]?
The kinact was 0.000253 s⁻¹.

And the kinact/KI [5]?
The kinact/KI was 18000 M⁻¹ s⁻¹.

Which results are given for `C=CC(=O)N1CCC(C(=O)NCCCC(=O)N2CCN(c3nc(-c4cnc(N)nc4C(F)F)nc(N4CCOCC4)n3)CC2)CC1` [Compound 51, 1-acryloyl-N-(4-(4-(4-(2-amino-4-(difluoromethyl)pyrimidin-5-yl)-6-morpholino-1,3,5-triazin-2-yl)piperazin-1-yl)-4-oxobutyl)piperidine-4-carboxamide]?
IC50 [4]: 0.686 µM; kchem (intrinsic reactivity of the inhibitors) [2]: 0.000437 M⁻¹ s⁻¹; Ki [5]: 0.0106 µM; kinact [5]: 0.000195 s⁻¹; kinact/KI [5]: 18800 M⁻¹ s⁻¹

Which results are given for `C=CC(=O)N1CCC(C(=O)N(C)CCC(=O)N2CCN(c3nc(-c4cnc(N)nc4C(F)F)nc(N4CCOCC4)n3)CC2)CC1` [Compound 57, 1-acryloyl-N-(3-(4-(4-(2-amino-4-(difluoromethyl)pyrimidin-5-yl)-6-morpholino-1,3,5-triazin-2-yl)piperazin-1-yl)-3-oxopropyl)-N-methylpiperidine-4-carboxamide]?
IC50 [4]: 0.25 µM; kchem (intrinsic reactivity of the inhibitors) [2]: 0.000388 M⁻¹ s⁻¹; Ki [5]: 0.0146 µM; kinact [5]: 0.000378 s⁻¹; kinact/KI [5]: 26100 M⁻¹ s⁻¹

Which results are given for `CN(C)C/C=C/C(=O)N1CCC(C(=O)N(C)CCC(=O)N2CCN(c3nc(-c4cnc(N)nc4C(F)F)nc(N4CCOCC4)n3)CC2)CC1` [Compound 58, (E)-N-(3-(4-(4-(2-amino-4-(difluoromethyl)pyrimidin-5-yl)-6-morpholino-1,3,5-triazin-2-yl)piperazin-1-yl)-3-oxopropyl)-1-(4-(dimethylamino)but-2-enoyl)-N-methylpiperidine-4-carboxamide]?
IC50 [4]: 0.26 µM; kchem (intrinsic reactivity of the inhibitors) [2]: 0.000386 M⁻¹ s⁻¹; Ki [5]: 0.0122 µM; kinact [5]: 0.000406 s⁻¹; kinact/KI [5]: 33600 M⁻¹ s⁻¹

For `C=CC(=O)N1CCC(COCC(=O)N2CCN(c3nc(-c4cnc(N)nc4C(F)F)nc(N4CCOCC4)n3)CC2)CC1` [Compound 61, 1-(4-((2-(4-(4-(2-amino-4-(difluoromethyl)pyrimidin-5-yl)-6-morpholino-1,3,5-triazin-2-yl)piperazin-1-yl)-2-oxoethoxy)methyl)piperidin-1-yl)prop-2-en-1-one], which logD [1] is on record?
The logD was 1.7.

What about the “kchem (intrinsic reactivity of the inhibitors)” value [2] of the same molecule?
The value was 0.00029 M⁻¹ s⁻¹.

What about the solubility [3] of the same molecule?
Its solubility is 381 µM (≈ 230 µg/mL).

Which results are given for `C=CC(=O)N1CCC(C(=O)NCCN2CCN(c3nc(-c4cnc(N)nc4C(F)F)nc(N4CCOCC4)n3)CC2)CC1` [Compound 62, 1-acryloyl-N-(2-(4-(4-(2-amino-4-(difluoromethyl)pyrimidin-5-yl)-6-morpholino-1,3,5-triazin-2-yl)piperazin-1-yl)ethyl)piperidine-4-carboxamide]?
IC50 [4]: 0.082 µM; logD [1]: 1.4; kchem (intrinsic reactivity of the inhibitors) [2]: 0.000518 M⁻¹ s⁻¹; solubility [3]: 393 µM (≈ 236 µg/mL); Ki [5]: 0.0162 µM; kinact [5]: 0.000187 s⁻¹; kinact/KI [5]: 11600 M⁻¹ s⁻¹

Which IC50 [4] does the source give for `C=CC(=O)N1CCC(Cc2ccc(C(=O)N3CCN(c4nc(-c5cnc(N)nc5C(F)F)nc(N5CCOCC5)n4)CC3)cc2)CC1` [Compound 100, 1-(4-(4-(4-(4-(2-amino-4-(difluoromethyl)pyrimidin-5-yl)-6-morpholino-1,3,5-triazin-2-yl)piperazine-1-carbonyl)benzyl)piperidin-1-yl)prop-2-en-1-one] here?
The IC50 was 0.056 µM.

What about the “kchem (intrinsic reactivity of the inhibitors)” value [2] of the same molecule?
The value was 0.000324 M⁻¹ s⁻¹.

And the Ki [5]?
The Ki was 0.00911 µM.

And the kinact [5]?
The kinact was 0.000123 s⁻¹.

What about the kinact/KI [5] of the same molecule?
The kinact/KI was 13700 M⁻¹ s⁻¹.

Which IC50 [4] does the source give for `C=CC(=O)N1CCC(Cc2cccc(C(=O)N3CCN(c4nc(-c5cnc(N)nc5C(F)F)nc(N5CCOCC5)n4)CC3)c2)CC1` [Compound 101, 1-(4-(3-(4-(4-(2-amino-4-(difluoromethyl)pyrimidin-5-yl)-6-morpholino-1,3,5-triazin-2-yl)piperazine-1-carbonyl)benzyl)piperidin-1-yl)prop-2-en-1-one] here?
Its IC50 is 0.043 µM.

And the logD [1]?
The logD was 2.66.

What about the “kchem (intrinsic reactivity of the inhibitors)” value [2] of the same molecule?
Its value is 0.00029 M⁻¹ s⁻¹.

What about the solubility [3] of the same molecule?
Its solubility is 46 µM (≈ 29.8 µg/mL).

What about the Ki [5] of the same molecule?
The Ki was 0.0105 µM.

What about the kinact [5] of the same molecule?
The kinact was 0.00015 s⁻¹.

And the kinact/KI [5]?
The kinact/KI was 14300 M⁻¹ s⁻¹.
